# Tests used:
# [1] = compound: COc1cccc2cc(-c3nc([C@H]4CC[C@H](C(=O)O)CC4)n4ncnc(N)c34)[nH]c12 [OSI-027]; test: relative viability (nuclei count vs DMSO), 5 days (fraction); higher = more cells survive
# Method in brief: (§1)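 Five library-drug doses, separated by factors of √10, were pinned into 1536-well plates holding lung cancer cell lines after an overnight stay at 37 °C. Cells were fixed, permeabilised and Hoechst-stained in one step after 5 days without medium change, then imaged at 4×. Viability compares treated-well with vehicle-well nuclei, counted in MetaXpress, as a median across plates. Passing plates had control CV below 25% and at least one doubling.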
# [2] = compound: CCCS(=O)(=O)Nc1ccc(F)c(C(=O)c2c[nH]c3ncc(-c4ccc(Cl)cc4)cc23)c1F [Vemurafenib]; test: as above
# Method in brief: as §1
Cell Line,relative viability ([1]; 0.01 µM),relative viability ([1]; 0.03162 µM),relative viability ([1]; 0.1 µM),relative viability ([1]; 0.3162 µM),"relative viability ([1]; 0.5 µM, anchor plate)",relative viability ([1]; 1 µM),relative viability ([2]; 0.03162 µM),relative viability ([2]; 0.3162 µM),relative viability ([2]; 1 µM),relative viability ([2]; 0.1 µM)
PC-3 [JPC-3],1.01,0.993,1.03,0.918,0.745,0.698,0.972,0.971,1.18,
NCI-H1648,0.868,0.602,0.683,0.724,0.266,0.532,0.819,1.4,0.833,0.717
NCI-H1651,0.96,0.828,0.977,0.901,0.71,0.723,0.919,0.887,0.966,0.998
NCI-H596,0.971,0.927,0.889,0.959,0.704,0.723,0.842,0.83,0.828,0.914
HARA,1.02,1.01,0.791,0.936,0.498,0.55,0.892,0.701,0.864,0.652
NCI-H727,0.849,0.884,0.893,0.769,0.624,0.712,1,1.2,0.908,0.802
Calu-6,1.12,0.954,1.03,0.907,,0.731,0.932,0.849,0.974,0.956
NCI-H1993,0.803,0.817,0.704,0.611,0.558,0.438,0.844,0.993,0.974,
HCC-366,1.05,0.962,1.08,1.05,0.911,0.803,1.01,,1.09,0.969
IA-LM,0.888,0.779,0.671,0.293,,0.151,0.837,0.86,0.851,0.888
EPLC-272H,0.972,0.934,0.78,0.514,0.289,0.439,0.889,1.01,0.903,0.854
NCI-H441,1.19,1.05,0.984,0.963,0.636,0.474,0.899,0.787,0.931,0.963
NCI-H1793,0.902,0.976,0.781,0.579,0.284,0.295,0.836,0.775,0.867,
201T,0.98,0.999,0.972,0.968,0.757,0.733,0.954,0.971,0.968,0.951
NCI-H460,1.03,0.973,1.01,0.917,0.701,0.704,0.983,0.87,0.975,1
NCI-H1666,0.99,0.986,0.98,0.88,0.863,0.666,0.946,1.1,0.926,0.902
HOP-62,1,1.07,1,0.957,0.831,0.75,0.961,0.858,0.875,1.05
SW 1573,0.951,0.892,0.938,0.878,0.671,0.655,0.916,0.957,0.941,0.927
NCI-H2085,0.962,0.967,0.928,0.926,0.789,0.658,0.89,0.805,1.02,0.885
ABC-1,0.874,1.03,0.825,0.585,0.499,0.547,0.808,0.711,0.945,0.886
NCI-H1299,1,0.995,1.02,1.06,,0.825,1.01,0.895,0.991,0.98
LU99A,0.953,0.894,0.831,0.451,0.307,0.27,0.93,0.74,0.895,0.946
NCI-H2009,1.01,0.992,0.965,0.948,0.629,0.617,0.95,0.716,0.866,0.938

Cell Line,relative viability ([1]; 0.01 µM),relative viability ([1]; 0.03162 µM),relative viability ([1]; 0.1 µM),relative viability ([1]; 0.3162 µM),"relative viability ([1]; 0.5 µM, anchor plate)",relative viability ([1]; 1 µM),relative viability ([2]; 0.03162 µM),relative viability ([2]; 0.3162 µM),relative viability ([2]; 1 µM),relative viability ([2]; 0.1 µM)
LCLC-97TM1,0.87,0.869,0.888,0.594,0.536,0.375,0.989,1.02,0.912,1.05
NCI-H1915,1.05,1.09,0.967,0.891,0.601,0.791,0.948,0.755,0.845,0.964
NCI-H2342,0.975,0.949,0.966,0.843,0.622,0.649,0.938,0.86,0.992,0.94
EKVX,0.984,0.914,0.93,0.889,0.693,0.582,0.935,1.03,0.988,
HCC-78,0.938,0.866,0.832,0.727,0.385,0.501,0.93,1.05,0.964,0.838
A549,0.95,0.839,0.94,0.788,,0.34,0.939,0.945,0.963,0.942
NCI-H2126,0.977,1.02,0.943,0.873,0.722,0.664,0.925,0.966,0.988,0.845
HCC-827,1.08,1.02,1.04,1.04,0.792,0.956,1.05,0.95,1.07,
NCI-H1650,0.937,0.843,0.912,0.893,0.689,0.421,0.774,0.924,1.01,0.701
NCI-H1703,0.913,0.948,0.759,0.657,,0.434,1.02,0.795,0.986,0.864
LK-2,1.02,0.914,0.703,0.515,0.221,0.191,0.944,1.05,0.66,0.937
PC-14,1,1.04,0.965,0.979,0.815,0.765,0.94,0.864,1.01,
NCI-H1355,0.985,0.985,0.898,0.823,0.451,0.444,0.933,0.925,0.96,0.908
LXF-289,1.02,0.971,1.04,0.981,0.817,0.881,0.967,1,1.06,0.95
LOU-NH91,0.903,0.967,0.786,0.776,0.72,0.591,0.954,,1.07,0.724
NCI-H2170,0.941,0.881,0.959,0.797,0.716,0.654,0.92,0.936,0.964,0.674
NCI-H2405,0.981,0.981,0.887,0.795,0.646,0.518,0.945,,0.98,0.955
SK-MES-1,1.04,0.967,0.922,0.78,0.605,0.35,0.969,0.932,0.973,0.727
LCLC-103H,1.03,1.02,0.903,0.871,0.473,0.749,0.958,0.91,0.883,0.952
NCI-H322M,0.922,0.887,0.843,0.72,0.578,0.527,0.883,1.11,0.906,
NCI-H23,0.906,0.96,0.808,0.784,0.612,0.54,0.918,0.838,0.871,0.967
HCC-15,0.981,0.977,0.983,0.899,0.692,0.708,0.926,0.854,0.989,1.03
NCI-H1437,1,0.921,1.01,0.914,0.881,0.565,0.904,0.974,1.05,0.958

Cell Line,relative viability ([1]; 0.01 µM),relative viability ([1]; 0.03162 µM),relative viability ([1]; 0.1 µM),relative viability ([1]; 0.3162 µM),"relative viability ([1]; 0.5 µM, anchor plate)",relative viability ([1]; 1 µM),relative viability ([2]; 0.03162 µM),relative viability ([2]; 0.3162 µM),relative viability ([2]; 1 µM),relative viability ([2]; 0.1 µM)
EBC-1,0.943,0.837,0.909,0.886,,0.361,0.943,0.986,1.03,0.929
A-427,0.891,0.946,0.794,0.722,0.47,0.619,0.953,0.852,0.989,0.973
NCI-H1975,0.977,0.924,0.926,0.953,0.729,0.622,0.922,0.696,0.886,0.9
SK-LU-1,1.08,0.974,0.916,0.608,0.328,0.425,0.95,0.669,0.978,0.958
NCI-H520,1.15,0.972,0.73,0.628,0.261,0.34,0.944,1.08,0.924,0.944
NCI-H1755,0.983,0.921,0.988,0.898,0.745,0.78,0.958,0.823,0.957,0.969
CAL-12T,0.99,0.988,0.944,0.857,0.702,0.528,0.961,1.01,0.935,0.892
SW 900,0.618,0.925,0.744,0.812,0.627,0.47,0.69,0.808,0.756,0.843
NCI-H1734,0.962,0.991,0.826,0.785,0.615,0.684,0.967,0.779,0.875,1.02
NCI-H358,1,0.842,1.03,1.01,0.79,0.538,0.865,1.12,1.11,
NCI-H1563,0.979,0.955,0.953,0.854,0.769,0.75,0.989,0.967,0.988,0.905
NCI-H650,0.862,0.999,0.732,0.701,0.532,0.403,0.882,0.413,0.628,0.965
BEN,0.882,0.82,0.647,0.475,0.296,0.299,0.923,0.569,0.8,0.987
NCI-H647,0.943,0.889,0.892,0.705,0.654,0.427,0.913,0.655,0.942,0.925
NCI-H522,1,1.03,0.819,0.767,0.745,0.77,0.913,0.852,0.867,0.959
NCI-H661,0.977,0.952,0.958,0.95,0.735,0.581,0.975,1.02,0.971,0.929
HCC-44,0.975,0.963,0.928,0.871,0.634,0.739,0.899,0.758,1.07,0.955
NCI-H1623,1.1,0.912,1.02,0.77,0.433,0.427,0.977,1.23,0.99,
NCI-H1792,0.658,0.841,0.843,0.709,0.784,0.374,0.776,0.624,0.914,0.904
NCI-H2347,0.979,1.07,0.904,0.772,0.376,0.516,0.939,0.791,0.924,1.02
LC-2-ad,1.07,1.01,0.946,1.02,0.875,0.779,0.923,0.738,0.956,0.892
COR-L 105,0.907,0.945,0.814,0.835,0.775,0.762,0.772,0.908,1.03,
NCI-H838,0.93,0.898,0.782,0.607,0.404,0.408,0.924,,1.03,0.988
